The test system of assay [1] is HuTu 80 (human duodenal adenocarcinoma). Description: MTT cytotoxicity, HuTu 80. The note with it: for IC50: mean ± SD, triplicate; for SI HuTu 80: IC50 normal cells (WI38) / IC50 cancer cells, ns = no selectivity. Format: cell-based.
Assay [2] has as its system M-HeLa (human cervix epitheloid carcinoma). The assay can be described thus: MTT cytotoxicity, M-HeLa. Format: cell-based. Particulars: for IC50: MTT, mean ± SD, triplicate; for SI M-HeLa: IC50 normal cells (WI38) / IC50 cancer cells, ns = no selectivity.
The test system of assay [3] is MCF-7 (human breast adenocarcinoma). Description: MTT cytotoxicity, MCF-7. Format: cell-based. The note with it: for IC50: mean ± SD, triplicate; for SI MCF-7: IC50 normal cells (WI38) / IC50 cancer cells, ns = no selectivity.
In assay [4] the test system is A549 (human lung carcinoma). Description: MTT cytotoxicity, A549. The note with it: for IC50: mean ± SD, triplicate; for SI A549: IC50 normal cells (WI38) / IC50 cancer cells, ns = no selectivity. Format: cell-based.
The subject of assay [5] is T98G glioblastoma cell line. The assay can be described thus: MTT cytotoxicity, T98G. Type of assay: cell-based, human. Particulars: for IC50: MTT, mean ± SD, triplicate; for SI T98G: IC50 normal cells (WI38) / IC50 cancer cells, ns = no selectivity.
For assay [6], the system named is WI38 (diploid human embryo lung). Description: MTT cytotoxicity, normal cells WI38. The note with it: mean ± SD, triplicate, read-out: WI38 IC50 (normal cell line). Format: cell-based.
Assay [7] has as its system PC3 (human prostate adenocarcinoma). The assay can be described thus: MTT cytotoxicity, PC3. Particulars: for IC50: mean ± SD, triplicate; for SI PC3: IC50 normal cells (WI38) / IC50 cancer cells, ns = no selectivity.
[8] abbreviates: Homo sapiens, read-out: IC50 PC3, MTT.

Read-outs that look alike come from different tables or passages of the source.

One may read the IC50 as the concentration needed to halve the response being measured. With `OC(CF)C[P+](c1ccccc1)(c1ccccc1)c1ccccc1` (stereo not drawn) [3c, (3-Fluoro-2-hydroxypropyl)triphenylphosphonium trifluoromethanesulfonate], the IC50 was 19.1 ± 1.6 µM in assay [1] (Homo sapiens, HuTu80, MTT); 90.6 ± 8.6 µM in assay [2] (Homo sapiens, M-HeLa); 56.5 ± 4.5 µM in assay [3] (Homo sapiens, MCF7, MTT); above 100 µM in assay [4] (Homo sapiens, A549, MTT); 52.1 ± 4.1 µM in assay [5] (Homo sapiens, T98G); 47.3 ± 3.8 µM in assay [6] (Homo sapiens, WI-38, MTT). Further, in assay [7] (setting [8]), the IC50 was 53.5 ± 4.2 µM. Moreover, the “SI HuTu 80” value in assay [1] was 2.5. The “SI M-HeLa” value in assay [2] is on record as “ns”. In addition, the “SI MCF-7” value in assay [3] was “ns”. Besides, the “SI A549” value in assay [4] is given as “ns”. Further, the “SI T98G” value in assay [5] was “ns”. Moreover, the “SI PC3” value in assay [7] is reported as “ns”.
With `OC(CI)C[P+](c1ccccc1)(c1ccccc1)c1ccccc1` (stereo not drawn) [3d, (2-Hydroxy-3-iodopropyl)triphenylphosphonium trifluoromethanesulfonate], the IC50 came to 9.4 ± 0.7 µM in assay [1] (Homo sapiens, HuTu80, MTT); 50 ± 4.3 µM in assay [2] (Homo sapiens, M-HeLa); 88.6 ± 7.1 µM in assay [3] (Homo sapiens, MCF7, MTT); 74.2 ± 5.6 µM in assay [4] (Homo sapiens, A549, MTT); 64 ± 4.8 µM in assay [5] (Homo sapiens, T98G); 35.2 ± 2.3 µM in assay [6] (Homo sapiens, WI-38, MTT). Moreover, the IC50 in assay [7] (setting [8]) came out at 39.1 ± 3.1 µM. For the same molecule, in assay [1], the “SI HuTu 80” value came to 4. The “SI M-HeLa” value in assay [2] is on record as “ns”. Besides, in assay [3], the “SI MCF-7” value is “ns”. Also, the “SI A549” value in assay [4] is given as “ns”. Moreover, in assay [5], the “SI T98G” value is listed as “ns”. Moreover, in assay [7], the “SI PC3” value is listed as “ns”.
For the molecule `COCC(O)C[P+](c1ccccc1)(c1ccccc1)c1ccccc1` (stereo not drawn) [3f, (2-Hydroxy-3-methoxypropyl)triphenylphosphonium trifluoromethanesulfonate], the “SI HuTu 80” value in assay [1] was determined as 1.5. Further, the IC50 in assay [1] (MTT) came to 23.6 ± 1.8 µM; in assay [2], 56.2 ± 4.7 µM; in assay [3] (MTT), 60.7 ± 4.9 µM; in assay [4] (MTT), 39 ± 3 µM; in assay [5] it was 60.4 ± 4.4 µM; in assay [6] (MTT), 35.6 ± 2.6 µM. Moreover, the IC50 in assay [7] (read-out: IC50 PC3, MTT) amounted to 55.2 ± 4.5 µM. Moreover, in assay [2], the “SI M-HeLa” value is reported as “ns”. In addition, the “SI MCF-7” value in assay [3] is “ns”. For the same molecule, the “SI A549” value in assay [4] is “ns”. Besides, the “SI T98G” value in assay [5] is listed as “ns”. Besides, the “SI PC3” value in assay [7] is recorded as “ns”.
As for `CCOCC(O)C[P+](c1ccccc1)(c1ccccc1)c1ccccc1` (stereo not drawn) [3g, (3-Ethoxy-2-hydroxypropyl)triphenylphosphonium trifluoromethanesulfonate], the “SI HuTu 80” value in assay [1] is listed as 1.6. Further, the IC50 in assay [1] (MTT) was found to be 18.4 ± 1.5 µM; in assay [2] (Homo sapiens, M-HeLa) it was 63.7 ± 5.2 µM; in assay [3] (Homo sapiens, MCF7, MTT), 66.8 ± 5.3 µM; in assay [4] (Homo sapiens, A549, MTT), 42.2 ± 3.2 µM; in assay [5] (Homo sapiens, T98G) it was 62.9 ± 4.6 µM; in assay [6] (Homo sapiens, WI-38, MTT), 30.1 ± 2.3 µM. In addition, the IC50 in assay [7] (setting [8]) was found to be 48.9 ± 3.9 µM. Moreover, the “SI M-HeLa” value in assay [2] is on record as “ns”. The “SI MCF-7” value in assay [3] is reported as “ns”. Also, the “SI A549” value in assay [4] was “ns”. Also, the “SI T98G” value in assay [5] is recorded as “ns”. The “SI PC3” value in assay [7] was “ns”.
Take `OC(COCC(F)(F)C(F)F)C[P+](c1ccccc1)(c1ccccc1)c1ccccc1` (stereo not drawn) [3h, (2-Hydroxy-3-(2,2,3,3-tetrafluoropropoxy)propyl)triphenylphosphonium trifluoromethanesulfonate]: the IC50 is 28.9 ± 2.1 µM in assay [1] (Homo sapiens, HuTu80, MTT); 100 ± 8.6 µM in assay [2] (Homo sapiens, M-HeLa); 64.4 ± 5 µM in assay [3] (Homo sapiens, MCF7, MTT); 34.3 ± 2.6 µM in assay [4] (Homo sapiens, A549, MTT); 63.4 ± 4.8 µM in assay [5] (Homo sapiens, T98G); 43.7 ± 3.5 µM in assay [6] (Homo sapiens, WI-38, MTT). For the same molecule, the IC50 in assay [7] (setting [8]) was determined as 48.7 ± 3.7 µM. In addition, in assay [1], the “SI HuTu 80” value was “ns”. Further, the “SI M-HeLa” value in assay [2] is on record as “ns”. Moreover, the “SI MCF-7” value in assay [3] is on record as “ns”. In addition, the “SI A549” value in assay [4] is “ns”. In assay [5], the “SI T98G” value is recorded as “ns”. Further, the “SI PC3” value in assay [7] is given as “ns”.
Turning to `C=CCOCC(O)C[P+](c1ccccc1)(c1ccccc1)c1ccccc1` (stereo not drawn) [3i, (3-(Allyloxy)-2-hydroxypropyl)triphenylphosphonium trifluoromethanesulfonate], the “SI HuTu 80” value in assay [1] came to 5. For the same molecule, the IC50 in assay [1] (MTT) worked out at 7.1 ± 0.06 µM; in assay [2], 60.8 ± 5.2 µM; in assay [3] (MTT), 70.5 ± 5.6 µM; in assay [4] (MTT) it was 41 ± 3.3 µM; in assay [5] it was 50.4 ± 4 µM; in assay [6] (MTT) it was 34.2 ± 2.7 µM. Further, the IC50 in assay [7] (read-out: IC50 PC3, MTT) worked out at 71.8 ± 6.6 µM. Further, the “SI M-HeLa” value in assay [2] is given as “ns”. Further, the “SI MCF-7” value in assay [3] is listed as “ns”. For the same molecule, the “SI A549” value in assay [4] is “ns”. Further, the “SI T98G” value in assay [5] was “ns”. The “SI PC3” value in assay [7] was “ns”.
With `CCCCCCCCCCCCCCCCCC(=O)OCC(O)C[P+](c1ccccc1)(c1ccccc1)c1ccccc1` (stereo not drawn) [3l, (2-Hydroxy-3-stearoyloxy-propyl)triphenylphosphoniumtrifluoromethanesulfonate], the IC50 is 45 ± 3.5 µM in assay [1] (Homo sapiens, HuTu80, MTT); 59.2 ± 5.1 µM in assay [2] (Homo sapiens, M-HeLa); 52.8 ± 4.2 µM in assay [3] (Homo sapiens, MCF7, MTT); 75.1 ± 5.7 µM in assay [4] (Homo sapiens, A549, MTT); 55.9 ± 5 µM in assay [5] (Homo sapiens, T98G); 50 ± 3.9 µM in assay [6] (Homo sapiens, WI-38, MTT). In addition, in assay [7] (setting [8]), the IC50 was determined as 53.8 ± 4.4 µM. Moreover, the “SI HuTu 80” value in assay [1] is listed as “ns”. Also, the “SI M-HeLa” value in assay [2] is reported as “ns”. Further, in assay [3], the “SI MCF-7” value is “ns”. Moreover, the “SI A549” value in assay [4] is on record as “ns”. The “SI T98G” value in assay [5] is recorded as “ns”. In addition, in assay [7], the “SI PC3” value is given as “ns”.
Regarding `COCC(O)C[P+](c1ccccc1)(c1ccccc1)c1ccccc1` (stereo not drawn) [4a], the IC50 turned out to be 26.7 ± 2.1 µM in assay [1] (Homo sapiens, HuTu80, MTT); 57.3 ± 4.7 µM in assay [2] (Homo sapiens, M-HeLa); 75.7 ± 5.9 µM in assay [3] (Homo sapiens, MCF7, MTT); 36 ± 2.8 µM in assay [4] (Homo sapiens, A549, MTT); 55.3 ± 4.4 µM in assay [5] (Homo sapiens, T98G); 36.5 ± 2.8 µM in assay [6] (Homo sapiens, WI-38, MTT). In assay [7] (setting [8]), the IC50 amounted to 50.3 ± 4 µM. Further, the “SI HuTu 80” value in assay [1] turned out to be 1.4. Moreover, the “SI M-HeLa” value in assay [2] is given as “ns”. Besides, the “SI MCF-7” value in assay [3] is “ns”. Also, the “SI A549” value in assay [4] is listed as “ns”. The “SI T98G” value in assay [5] is listed as “ns”. Moreover, in assay [7], the “SI PC3” value is listed as “ns”.
`CCOCC(O)C[P+](c1ccccc1)(c1ccccc1)c1ccccc1.[I-]` (stereo not drawn) [4b, (3-Ethoxy-2-hydroxypropyl)triphenylphosphonium iodide]: the “SI HuTu 80” value in assay [1] came out at 7. Besides, the IC50 came out at 3.4 ± 0.3 µM in assay [1] (MTT); 68.4 ± 5.9 µM in assay [2]; 60.3 ± 4.7 µM in assay [3] (MTT); 39.1 ± 3.1 µM in assay [4] (MTT); 49.7 ± 4 µM in assay [5]; 22.9 ± 1.9 µM in assay [6] (MTT). Further, the IC50 in assay [7] (read-out: IC50 PC3, MTT) was determined as 42.4 ± 3.3 µM. Further, in assay [2], the “SI M-HeLa” value was “ns”. The “SI MCF-7” value in assay [3] is on record as “ns”. The “SI A549” value in assay [4] was “ns”. In addition, in assay [5], the “SI T98G” value is listed as “ns”. The “SI PC3” value in assay [7] is listed as “ns”.
